Results as given in patent publication US20210387983A1, “CRYSTALLINE ALK5 INHIBITORS AND USES THEREOF” (THERAVANCE BIOPHARMA R&D IP, LLC, priority 2020, published 2021).

Assays:
[1] = Lung PK/PD: PK study after oral aspiration; format: in vivo; conditions: C57bl/6n, mouse, lung / plasma, mice, 3% glycerol in PBS pH=4, read-out: (lung AUC0-4):(plasma AUC0-4) ratio
Description: C57bl/6n mice were acclimated for at least 3 days before use. On the day of the experiment, animals were grouped into sample sizes of 5 (n=10 for the TGF-β stimulated group). The compound of Formula I (formulated in 3% glycerol in PBS; pH=4) was pre-treated via oral aspiration (OA; animals are forced to aspirate solution into the lungs by covering their nose). All oral aspirations were performed using a 50 μL dosing volume and accompanied by the appropriate vehicle control groups. Following compound OA treatment, the animals were returned to their home cages and monitored. Compound pre-treatment occurred 4 hours prior to harvest for screening and dose-response studies; duration studies had variable compound pre-treatment times. One hour prior to harvest, animals were challenged via oral aspiration a second time with PBS vehicle or recombinant human TGF-β1 protein (0.01 μg per animal dissolved in 1 part 4 mM HCl and 2 parts 3% glycerol in PBS). Five minutes prior to harvest, animals were deeply anesthetized under isoflurane and euthanized via cervical dislocation. […]
Left lung lobes were harvested immediately after BALF collection. […] Following collection of the supernatant, a total protein quantification assay (Bradford) was performed to normalize the concentrations of all samples. […]
Plasma, lung and macrophage drug concentrations were quantified. […]

[2] = tested on: syngeneic cancer models (4T1 cells, CT26 cells); assay: Efficacy study in syngeneic cancer model (4T1 or CT26 cells); format: in vivo, BALB/c mice
Text: The compound of Formula I is expected to suppress tumor growth in syngeneic cancer models when administered alone or in combination with an immunotherapeutic agent. Six- to 8-week old BALB/c mice are used for in vivo efficacy studies in accordance with IACUC guidelines. Commercially available 4T1 cells (0.5-2.0×10^4 cells/mouse) are implanted subcutaneously into the right flanks of BALB/c mice. When the tumor reaches a palpable size of approximately 8-10 mm in diameter, the primary tumors are surgically removed, and the mice are randomly assigned to vehicle control or compound treatment groups. Alternatively, CT26 cells (0.5-2.0×10^4 cells/mouse) are injected intravenously into BALB/c mice to generate the cancer model. […]
Body weight is measured twice weekly. Following 2- to 4-weeks of treatment, the lung and liver of each animal is harvested, and the number of metastatic cells in each tissue sample determined using a clonogenic metastasis assay. […]

[3] = tested on: intestinal fibrosis in an adoptive T-cell transfer model of colitis; assay: Efficacy study in adoptive T-cell transfer model of colitis; format: in vivo, CB17 SCID mice; conditions: oral gavage once diarrhea and 10% body weight decrease observed; sacrifice 45 days after induction
Description: The compound of Formula I is expected to slow, halt or reverse the progression of intestinal fibrosis in an adoptive T-cell transfer model of colitis. Six- to 8-week old female CB17 SCID mice are tagged and weighed, then administered CD4^+ CD25^− CD62L^+ naïve T cells isolated from the spleens of Balb/C mice (IP; 1×10^6 cells) to induce colitis. Once diarrhea and a 10% or greater decrease in body weight are observed (typically around week 2), mice are treated with either vehicle control or the compound of Formula I at an appropriate amount and frequency via oral gavage (e.g., once daily). Animals are sacrificed 45 days after induction of colitis, then distal, mid and proximal sections of the colon harvested for histologic analysis, RNA extraction and cytokine measurement.

Which results are given for `C[C@@H]1CN(CCNc2cnc3ccc(-c4nc[nH]c4-c4cc(Cl)ccc4F)nc3c2)C[C@H](C)N1` [compound of Formula I, 6-(5-(5-chloro-2-fluorophenyl)-1H-imidazol-4-yl)-N-(2-((3S,5R)-3,5-dimethylpiperazin-1-yl)ethyl)-1,5-naphthyridin-3-amine]?
Kp [1]: > 75; lung tumor burden in combination with an immunotherapeutic agent ([2]; combination with immunotherapeutic agent (e.g., pembrolizumab or durvalumab), relative to either single agent alone): increased reduction in lung tumor burden; lung tumor burden ([2]; compound alone, oral aspiration or intranasally, 2- to 4-weeks of treatment): reduction in lung tumor burden; intestinal fibrosis [3]: slow, halt or reverse intestinal fibrosis
